Laboratory results as given in PubChem BioAssay AID256 (DTP/NCI, 2004).
“And” between values parts separate entries of the source, which are not always exact repeats. Equal values may be shown once. Inconclusive results and toxic doses are left out. Rule for the calls: active = survival T/C of 150% or more; inactive = T/C below 125% in these data.

Test system: CD2F1 mice, L1210 leukemia ip, survival T/C
Assay: NCI In Vivo Anticancer Drug Screen. Data for tumor model L1210 Leukemia (intraperitoneal) in CD2F1 (CDF1) mice
Conditions: higher = longer survival
In short: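 Activity against a transplanted murine tumor was judged by comparing the compound group with a vehicle group. The outcome in the treated animals was divided by that in the controls.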

[1] = endpoint: mean survival time, dose: 100.0 mg/kg/injection, schedule: Q04DX003 (ip), vehicle: saline with Tween-80
[2] = endpoint: mean survival time, dose: 200.0 mg/kg/injection, schedule: Q04DX003 (ip), vehicle: saline with Tween-80
[3] = endpoint: mean survival time, dose: 400.0 mg/kg/injection, schedule: Q04DX003 (ip), vehicle: saline with Tween-80
[4] = endpoint: mean survival time, dose: 100.0 mg/kg/injection, schedule: Q01DX001 (ip), vehicle: saline with Tween-80
[5] = endpoint: mean survival time, dose: 200.0 mg/kg/injection, schedule: Q01DX001 (ip), vehicle: saline with Tween-80
[6] = endpoint: mean survival time, dose: 400.0 mg/kg/injection, schedule: Q01DX001 (ip), vehicle: saline with Tween-80
[7] = endpoint: mean survival time, dose: 25.0 mg/kg/injection, schedule: Q01DX009 (ip), vehicle: saline with Tween-80
[8] = endpoint: mean survival time, dose: 50.0 mg/kg/injection, schedule: Q01DX009 (ip), vehicle: saline with Tween-80
[9] = endpoint: mean survival time, dose: 100.0 mg/kg/injection, schedule: Q01DX009 (ip), vehicle: saline with Tween-80

Measured: T/C

O=C(/C=C\c1ccnc2ccccc12)c1ccc([N+](=O)[O-])cc1
inactive: endpoint: mean survival time, dose: 12.5 mg/kg/injection, schedule: Q01DX009 (ip), vehicle: other 94 % of control | endpoint: mean survival time, dose: 25.0 mg/kg/injection, schedule: Q01DX009 (ip), vehicle: other 89 % of control | endpoint: mean survival time, dose: 50.0 mg/kg/injection, schedule: Q01DX009 (ip), vehicle: other 89 % of control | endpoint: mean survival time, dose: 100.0 mg/kg/injection, schedule: Q01DX009 (ip), vehicle: other 92 % of control | [1] 97 % of control | endpoint: mean survival time, dose: 200.0 mg/kg/injection, schedule: Q01DX009 (ip), vehicle: other 97 % of control | [2] 94 % of control | [3] 91 % of control

COc1cc(OC)c(OC)cc1/C=C/c1ccc2ccccc2n1
inactive: [1] 92 % of control | [2] 96 % of control | [3] 96 % of control

COC(=O)c1cc(C(=O)OC)c(C(=O)OC)cc1C(=O)OC
inactive: [1] 97 % of control | [2] 92 % of control | [3] 89 % of control

O=S1(=O)CC(S(=O)(=O)O)C(S(=O)(=O)O)C1 (stereo not given)
inactive: endpoint: mean survival time, dose: 100.0 mg/kg/injection, schedule: Q04DX003 (ip), vehicle: saline 93 % of control | endpoint: mean survival time, dose: 200.0 mg/kg/injection, schedule: Q04DX003 (ip), vehicle: saline 101 % of control | endpoint: mean survival time, dose: 400.0 mg/kg/injection, schedule: Q04DX003 (ip), vehicle: saline 93 % of control

N#Cc1nc(N)nc2c1ncn2-c1ccc(C(N)=O)cc1
inactive: [4] 96 % of control | [5] 101 % of control | [6] 90 % of control

Cc1ncnc2c1ncn2C1OC(CO)C(O)C1O (stereo not given)
inactive: endpoint: mean survival time, dose: 0.25 mg/kg/injection, schedule: Q01DX005 (ip), vehicle: saline 113 % of control | endpoint: mean survival time, dose: 0.5 mg/kg/injection, schedule: Q01DX005 (ip), vehicle: saline 112 % of control | endpoint: mean survival time, dose: 1.0 mg/kg/injection, schedule: Q01DX005 (ip), vehicle: saline 124 % of control | endpoint: mean survival time, dose: 4.0 mg/kg/injection, schedule: Q01DX005 (ip), vehicle: saline 113 % of control

CC1OC(=O)C(C(C)C)NC(=O)C(C(C)C)OC(=O)C(C(C)C)NC(=O)C(C)OC(=O)C(C(C)C)NC(=O)C(C(C)C)OC(=O)C(C(C)C)NC(=O)C(C)OC(=O)C(C(C)C)NC(=O)C(C(C)C)OC(=O)C(C(C)C)NC1=O (stereo not given)
inactive: endpoint: mean survival time, dose: 1.25 mg/kg/injection, schedule: Q01DX009 (ip), vehicle: saline with Tween-80 109 % of control | endpoint: mean survival time, dose: 2.5 mg/kg/injection, schedule: Q01DX009 (ip), vehicle: saline with Tween-80 103 % of control and 107 % of control | endpoint: mean survival time, dose: 5.0 mg/kg/injection, schedule: Q01DX009 (ip), vehicle: saline with Tween-80 103 % of control and 110 % of control | endpoint: mean survival time, dose: 10.0 mg/kg/injection, schedule: Q01DX009 (ip), vehicle: saline with Tween-80 106 % of control | endpoint: mean survival time, dose: 20.0 mg/kg/injection, schedule: Q01DX009 (ip), vehicle: saline with Tween-80 112 % of control

CC(CC(C(=O)O)C(=O)O)C(=O)O (stereo not given)
inactive: endpoint: mean survival time, dose: 12.5 mg/kg/injection, schedule: Q01DX009 (ip), vehicle: water 93 % of control | endpoint: mean survival time, dose: 25.0 mg/kg/injection, schedule: Q01DX009 (ip), vehicle: water 93 % of control | endpoint: mean survival time, dose: 50.0 mg/kg/injection, schedule: Q01DX009 (ip), vehicle: water 93 % of control | endpoint: mean survival time, dose: 100.0 mg/kg/injection, schedule: Q01DX009 (ip), vehicle: water 91 % of control

NC1=NC(c2ccc(Cl)cc2)N(c2ccc(S(N)(=O)=O)cc2)C(N)=N1 (stereo not given)
inactive: [7] 100 % of control | [8] 100 % of control | [9] 96 % of control

NCc1c(Cl)c(Cl)c(Cl)c(CN)c1Cl
inactive: endpoint: mean survival time, dose: 50.0 mg/kg/injection, schedule: Q04DX003 (ip), vehicle: saline with Tween-80 100 % of control | [1] 100 % of control | [2] 98 % of control

CN(C)c1nc(N(C)C)nc(N(C)C)n1
inactive: endpoint: mean survival time, dose: 12.5 mg/kg/injection, schedule: Q01DX009 (ip), vehicle: saline with Tween-80 93 % of control and 103 % of control | endpoint: mean survival time, dose: 20.0 mg/kg/injection, schedule: Q01DX009 (ip), vehicle: Klucel (hydroxypropylcellulose) (HPC) 106 % of control | [7] 97 % of control and 102 % of control | endpoint: mean survival time, dose: 40.0 mg/kg/injection, schedule: Q01DX009 (ip), vehicle: Klucel (hydroxypropylcellulose) (HPC) 102 % of control | endpoint: mean survival time, dose: 50.0 mg/kg/injection, schedule: Q01DX001 (ip), vehicle: saline with Tween-80 96 % of control | [8] 97 % of control and 100 % of control | endpoint: mean survival time, dose: 80.0 mg/kg/injection, schedule: Q01DX009 (ip), vehicle: Klucel (hydroxypropylcellulose) (HPC) 106 % of control | [4] 104 % of control | [9] 96 % of control and 97 % of control | endpoint: mean survival time, dose: 160.0 mg/kg/injection, schedule: Q01DX009 (ip), vehicle: Klucel (hydroxypropylcellulose) (HPC) 100 % of control | [5] 97 % of control | endpoint: mean survival time, dose: 200.0 mg/kg/injection, schedule: Q01DX009 (ip), vehicle: saline with Tween-80 100 % of control and 103 % of control | [6] 104 % of control | endpoint: median survival time, dose: 8.0 mg/kg/injection, schedule: Q03HX024 (ip), vehicle: Klucel (hydroxypropylcellulose) (HPC) 97 % of control | endpoint: median survival time, dose: 16.0 mg/kg/injection, schedule: Q03HX008 (ip), vehicle: Klucel (hydroxypropylcellulose) (HPC) 96 % of control | endpoint: median survival time, dose: 16.0 mg/kg/injection, schedule: Q03HX016 (ip), vehicle: Klucel (hydroxypropylcellulose) (HPC) 96 % of control | endpoint: median survival time, dose: 16.0 mg/kg/injection, schedule: Q03HX024 (ip), vehicle: Klucel (hydroxypropylcellulose) (HPC) 104 % of control | endpoint: median survival time, dose: 32.0 mg/kg/injection, schedule: Q01DX009 (ip), vehicle: Klucel (hydroxypropylcellulose) (HPC) 108 % of control | endpoint: median survival time, dose: 32.0 mg/kg/injection, schedule: Q03HX008 (ip), vehicle: Klucel (hydroxypropylcellulose) (HPC) 100 % of control | endpoint: median survival time, dose: 32.0 mg/kg/injection, schedule: Q03HX016 (ip), vehicle: Klucel (hydroxypropylcellulose) (HPC) 100 % of control | endpoint: median survival time, dose: 32.0 mg/kg/injection, schedule: Q03HX024 (ip), vehicle: Klucel (hydroxypropylcellulose) (HPC) 111 % of control | endpoint: median survival time, dose: 64.0 mg/kg/injection, schedule: Q01DX009 (ip), vehicle: Klucel (hydroxypropylcellulose) (HPC) 107 % of control | endpoint: median survival time, dose: 64.0 mg/kg/injection, schedule: Q04DX003 (ip), vehicle: Klucel (hydroxypropylcellulose) (HPC) 98 % of control | endpoint: median survival time, dose: 128.0 mg/kg/injection, schedule: Q01DX001 (ip), vehicle: Klucel (hydroxypropylcellulose) (HPC) 97 % of control | endpoint: median survival time, dose: 128.0 mg/kg/injection, schedule: Q01DX009 (ip), vehicle: Klucel (hydroxypropylcellulose) (HPC) 102 % of control | endpoint: median survival time, dose: 128.0 mg/kg/injection, schedule: Q04DX003 (ip), vehicle: Klucel (hydroxypropylcellulose) (HPC) 109 % of control | endpoint: median survival time, dose: 128.0 mg/kg/injection, schedule: Q08DX002 (ip), vehicle: Klucel (hydroxypropylcellulose) (HPC) 98 % of control | endpoint: median survival time, dose: 256.0 mg/kg/injection, schedule: Q01DX001 (ip), vehicle: Klucel (hydroxypropylcellulose) (HPC) 98 % of control | endpoint: median survival time, dose: 256.0 mg/kg/injection, schedule: Q04DX003 (ip), vehicle: Klucel (hydroxypropylcellulose) (HPC) 114 % of control | endpoint: median survival time, dose: 256.0 mg/kg/injection, schedule: Q08DX002 (ip), vehicle: Klucel (hydroxypropylcellulose) (HPC) 98 % of control

CN(C)c1ccc(N=Nc2ccccc2)cc1
inactive: endpoint: mean survival time, dose: 31.25 mg/kg/injection, schedule: Q01DX009 (ip), vehicle: saline with Tween-80 98 % of control | endpoint: mean survival time, dose: 62.5 mg/kg/injection, schedule: Q01DX009 (ip), vehicle: saline with Tween-80 96 % of control | endpoint: mean survival time, dose: 62.5 mg/kg/injection, schedule: Q04DX003 (ip), vehicle: saline with Tween-80 93 % of control | endpoint: mean survival time, dose: 125.0 mg/kg/injection, schedule: Q04DX003 (ip), vehicle: saline with Tween-80 95 % of control

Cc1cc(NC(=O)Nc2cc(Cl)ccc2C)no1
inactive: endpoint: mean survival time, dose: 50.0 mg/kg/injection, schedule: Q01DX009 (ip), vehicle: Klucel (hydroxypropylcellulose) (HPC) 98 % of control | endpoint: mean survival time, dose: 200.0 mg/kg/injection, schedule: Q01DX009 (ip), vehicle: Klucel (hydroxypropylcellulose) (HPC) 91 % of control
